Laboratory results: patent US9314383B2, “Absorptive article” (UNICHARM CORPORATION, priority 2012, dated 2016)

Source text: The term “solubility” used herein in regard to water solubility includes cases where the sample completely dissolves in deionized water to form a homogeneous mixture, and cases where the sample is completely emulsified. Here, “completely” means that no mass of the sample remains in the deionized water.

| SMILES | Water solubility (g) | Water solubility [g] |
| --- | --- | --- |
| CCCCCCCCCCCC(=O)OCC(O)CO (stereo not drawn) [90-L2 Lauric acid monoglyceride, lauric acid monoglyceride] | 20< g |  |
| CCCCC(CC)C(=O)OCC(C)(C)COC(=O)C(CC)CCCC (stereo not drawn) [H-208BRS, Neopentyl glycol di(2-ethylhexanoate)] |  | <0.05 |
| CC(C)CCCCCCCCCCCCCCCOC(=O)CC(O)C(=O)OCCCCCCCCCCCCCCCC(C)C (stereo not drawn) [Diisostearyl malate] | 20< g |  |
| CCCCOC(=O)CC(CC(=O)OCCCC)(OC(C)=O)C(=O)OCCCC [Tributyl O-acetylcitrate] |  | <0.05 |
| CCCCCCCC(=O)OCC(COC(=O)CCCCCCC)OC(=O)CCCCCCC [PANACET 800] |  | <0.05 |
| CCCCC(CC)C(=O)OCC(COC(=O)C(CC)CCCC)OC(=O)C(CC)CCCC (stereo not drawn) [PANACET 800B] |  | <0.05 |
